Measured values reported in US5236957A, “N-phenylalkyl substituted α-amino carboxamide derivatives and process for their preparation” (Farmitalia Carlo Erba Srl, priority 1989, dated 1993).
pIC50: −log10 of the molar value. Like-named read-outs stand apart in the source and are kept apart here.

What was measured:
[1] = system: bicucculine-induced lethality in mice; assay: Antagonism of bicucculine-induced lethality in mice; type: in vivo; settings: Mus musculus, po; drugs given orally 1 h before bicucculine (0.6 mg/kg, i.v.); protection of 50% of mice from lethality
Protocol: (§1) The activity on the CNS of the compounds of the invention was evaluated on the basis of pharmacological methods, such as, for example, the antagonism of convulsions and lethality induced by intravenous injection of bicucculine in mice (Antiepileptic Drug, D. M. Woodbury et al. eds., 2nd edition, Raven Press, New York, 1982), or the antagonism of convulsions induced in mice by subcutaneous injection of 3-mercaptopropionic acid (W. Loscher, Biochem. Pharmacol., 28; 1397-1407, 1979). Accordingly in following Tables 1 and 2, the doses which protect 50% of the mice (i.e. ED50) from lethality and tonic convulsions induced by bicucculine and 3-mercaptopropanoic acid, respectively, are given for a representative group of compounds according to the present invention.
Antagonism of bicucculine-induced lethality in mice.
Drugs were given orally 1 h before bicucculine (0.6 mg/kg, i.v.)

[2] = system: 3-mercaptopropionic acid (MPA) induced tonic convulsions in mice; assay: Antagonism of 3-mercaptopropionic acid (MPA) induced tonic convulsions in mice; type: in vivo; settings: Mus musculus, po
Protocol: as §1
Antagonism of 3-mercaptopropionic acid (MPA) induced
tonic convulsions in mice; drugs were given orally
1 h before MPA (60 mg/kg s.c.)

[3] = system: serotonin (5-HT) and 5-hydroxy-indole-3-acetic acid (5-HIAA); assay: Levels of 5-HT and 5-HIAA in frontal cortex of mice; type: in vivo; settings: 200 mg/kg p.o.
MAO type B = target: T1, MAO type B (Rattus norvegicus, UniProt P19643); assay: Inhibition of MAO type B, rat liver mitochondria, 2-phenylethylamine as substrate; type: biochemical; settings: rat liver mitochondria as source of MAO
T1 construct: using rat liver mitochondria as the source of MAO; from tissue; host or cells: rat liver mitochondria
T1 sequence (P19643 1-520): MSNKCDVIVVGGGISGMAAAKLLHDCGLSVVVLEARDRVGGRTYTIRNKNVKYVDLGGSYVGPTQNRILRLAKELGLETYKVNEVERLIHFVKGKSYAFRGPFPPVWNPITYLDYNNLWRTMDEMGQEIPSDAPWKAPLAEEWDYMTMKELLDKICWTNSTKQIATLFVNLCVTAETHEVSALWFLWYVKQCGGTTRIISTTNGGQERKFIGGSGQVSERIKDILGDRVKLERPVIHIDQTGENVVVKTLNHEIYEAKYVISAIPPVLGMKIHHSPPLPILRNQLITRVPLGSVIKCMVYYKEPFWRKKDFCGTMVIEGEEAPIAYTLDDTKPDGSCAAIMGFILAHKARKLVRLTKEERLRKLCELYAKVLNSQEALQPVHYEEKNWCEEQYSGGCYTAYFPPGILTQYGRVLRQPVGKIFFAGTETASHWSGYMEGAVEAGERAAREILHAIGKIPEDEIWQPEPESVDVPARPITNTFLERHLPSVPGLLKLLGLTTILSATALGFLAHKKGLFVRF

[4] = drugs given orally 1 h before MPA (60 mg/kg s.c.), protection of 50% of mice from tonic convulsions, read-out: ED50

Row | SMILES | ED50 [1] | ED50 [2, 4] | other results
1 | C[C@H](NCc1ccc(NCc2ccccc2)cc1)C(N)=O [FCE 26749, (S)-2-(4-benzylaminobenzyl)aminopropionamide] | 9 mg/kg |  | 
2 | C[C@H](NCc1ccc(OCc2ccccc2Cl)cc1)C(N)=O [FCE 26700, (S)-2-[4-(2-chlorobenzyloxy)benzyl]aminopropionamide] | 17 mg/kg |  | 
3 | CNC(=O)[C@H](CO)NCc1ccc(OCc2cccc(F)c2)cc1 [FCE 26650, (S)-2-[4-(3-fluorobenzyloxy)benzyl]amino-3-hydroxy-N-methylpropionamide] | 25 mg/kg |  | 
4 | C[C@@H](NCc1ccc(OCc2cccc(Cl)c2)cc1)C(N)=O [FCE 26312, (R)-2-[4-(3-chlorobenzyloxy)benzyl]aminopropionamide] | 50 mg/kg | 10 mg/kg | 
5 | C[C@H](NCc1ccc(OCc2ccccc2)cc1)C(N)=O [FCE 26550, (S)-2-(4-benzyloxybenzyl)aminopropionamide] | 15 mg/kg | 13 mg/kg | 
6 | CNC(=O)[C@H](CO)NCc1ccc(OCc2ccccc2Cl)cc1 [FCE 26502, (S)-2-[4-(2-chlorobenzyloxy)benzyl]amino-3-hydroxy-N-methylpropionamide] | 27 mg/kg | 16 mg/kg | 
7 | C[C@@H](C(N)=O)N(C)Cc1ccc(Cc2ccccc2)cc1 [FCE 26762, (S)-2-[N-(4-benzylbenzyl)-N-methyl]aminopropionamide] | 54 mg/kg |  | 
8 | CNC(=O)[C@H](CO)NCc1ccc(OCc2ccccc2F)cc1 [FCE 26649] | 12 mg/kg |  | 
9 | NC(=O)CNCc1ccc(OCc2cccc(Cl)c2)cc1 [FCE 25989, 2-[4-(3-chlorobenzyloxy)benzyl]aminoacetamide] | 190 mg/kg | 28 mg/kg | increase of 5-HIAA [3]: 37%; increase of 5-HT [3]: 48%; pIC50 (MAO type B): 6.70
10 | CNC(=O)[C@H](CO)NCc1ccc(OCc2cccc(Cl)c2)cc1 [FCE 26359, (S)-2-[4-(3-chlorobenzyloxy)benzyl]amino-3-hydroxy-N-methylpropionamide] |  | 29 mg/kg | 
11 | CCCC(CCC)C(=O)O [Valproate, reference compound] | 401 mg/kg |  | ED50 ([2]; 1 h): 302 mg/kg
12 | CNC(=O)[C@H](CO)NCc1ccc(OCc2ccccc2)cc1 [FCE 26358, (S)-2-(4-benzyloxybenzyl)amino-3-hydroxy-N-methylpropionamide] | 16 mg/kg | 43 mg/kg | 
13 | C[C@H](NCc1ccc(OCc2cccc(F)c2)cc1)C(N)=O [FCE 26743, (S)-2-[4-(3-fluorobenzyloxy)benzyl]aminopropionamide] | 29 mg/kg |  | 
14 | C[C@H](NCc1ccc(Cc2ccccc2)cc1)C(N)=O [FCE 26723, (S)-2-(4-benzylbenzyl)aminopropionamide] | 16 mg/kg |  | 
